# Experimental data as given in ChEMBL document CHEMBL3352240, “Upregulation of both heme oxygenase-1 and ATPase inhibitory factor 1 renders tumoricidal activity by synthetic flavonoids via depleting cellular ATP” (2014).
# The source made the active and inactive calls. No cut-off for these calls is given here.
# Experiments:
# MRC5 [1] = assay: Induction of HO-1 expression in human MRC5 cells […] after 24 hrs by immunoblotting analysis relative to control; format: functional
# MRC5 [2] = assay: Induction of ATPIF-1 expression in human MRC5 cells […] after 24 hrs by immunoblotting analysis relative to control; format: functional
# HCT-116 [3] = assay: Cytotoxicity against human HCT116 cells at 30 uM after 24 hrs by MTT assay in presence of HO-1 inhibitor siRNA; format: functional, cell-based
# HCT-116 [4] = assay: Cytotoxicity against human HCT116 cells at 10 to 50 uM by MTT assay; format: functional, cell-based; details: TDE = time-dependent effect
# HCT-116 [5] = assay: Cytotoxicity against human HCT116 cells after 24 to 48 hrs by MTT assay; format: functional, cell-based
# MRC5 [6] = assay: Induction of apoptosis in human MRC5 cells assessed as downregulation of Bcl-XL protein expression in presence of H2O2 by Western blotting method; format: functional, cell-based
# HCT-116 [7] = assay: Cytotoxicity against human HCT116 cells at 20 uM after 24 to 48 hrs by MTT assay; format: functional, cell-based
# HT-29 [8] = assay: Induction of mitochondrial morphology changes in human HT-29 cells assessed as mitochondria with electron dense phenotype and well preserved cristae by microscopic analysis; format: functional, cell-based
# HT-29 [9] = assay: Induction of ATPIF-1 expression in human HT-29 cells at 20 uM after 48 hrs relative to vehicle-treated control; format: functional, cell-based
# HCT-116 [10] = assay: Induction of mitochondrial morphology changes in human HCT116 cells assessed as swelling and damaged mitochondria by microscopic analysis; format: functional, cell-based
# HT-29 [11] = assay: Induction of mitochondrial morphology changes in human HT-29 cells assessed as lipid bodies near mitochondria by microscopic analysis; format: functional, cell-based
# MRC5 [12] = assay: Induction of apoptosis in human MRC5 cells assessed as downregulation of Bcl2 protein expression in presence of H2O2 by Western blotting method; format: functional, cell-based
# HT-29 [13] = assay: Cytotoxicity against human HT-29 cells at 30 uM after 24 hrs by MTT assay in presence of HO-1 inducer hemin; format: functional, cell-based
# MRC5 [14] = assay: Cytotoxicity against human MRC5 cells by MTT assay in presence of H2O2; format: functional, cell-based
# HCT-116 [15] = assay: Induction of cellular energetics impairment in human HCT116 cells assessed as cellular ATP level by Cell Titre-Glo assay relative to vehicle-treated control; format: functional
# HCT-116 [16] = assay: Cytotoxicity against human HCT116 cells at 30 uM after 24 hrs by MTT assay in presence of HO-1 inhibitor ZnPP; format: functional, cell-based
# HT-29 [17] = assay: Induction of cellular energetics impairment in human HT-29 cells assessed as cellular ATP level by Cell Titre-Glo assay relative to vehicle-treated control; format: functional
# HCT-116 [18] = assay: Induction of ATPIF-1 expression in human HCT116 cells at 20 uM after 48 hrs relative to vehicle-treated control; format: functional, cell-based
# HCT-116 [19] = assay: Induction of apoptosis in human HCT116 cells assessed as PARP cleavage at 20 uM after 48 hrs by Western blotting method; format: functional, cell-based
# HT-29 [20] = assay: Cytotoxicity against human HT-29 cells at 20 uM after 24 to 48 hrs by MTT assay; format: functional, cell-based
# MRC5 [21] = assay: Cytotoxicity against human MRC5 cells at 30 uM by MTT assay in presence of H2O2; format: functional, cell-based
# HCT-116 [22] = assay: Cytotoxicity against human HCT116 cells at 10 to 50 uM after 24 to 48 hrs by MTT assay; format: functional, cell-based
# HT-29 [23] = assay: Cytotoxicity against human HT-29 cells at 10 to 50 uM after 24 to 48 hrs by MTT assay; format: functional, cell-based
SMILES,Ratio (MRC5 [1]),Ratio (MRC5 [2]),other results
C=C[C@@H](c1ccc(OC)c(OC)c1)c1c(O)cc(OC)c2c(=O)cc(-c3ccccc3)oc12,1.1,1.9,
C=C[C@@H](c1ccc(O)c(OC)c1)c1c(OC)cc(O)c2c(=O)cc(-c3ccccc3)oc12,3.4,1.8,Activity (HCT-116 [3]): inactive; Activity (HCT-116 [4]): tde; Activity (HCT-116 [5]): Dose-dependent effect; Activity (MRC5 [6]): Active; Activity (HCT-116 [7]): Active; Activity (HT-29 [8]): Active; Activity (HT-29 [9]): Active; Activity (HCT-116 [10]): Active; Activity (HT-29 [11]): Active; Activity (MRC5 [12]): Active; Activity (HT-29 [13]): Active; Activity (MRC5 [14]): Active; Activity (HCT-116 [15]): 37.3%; Activity (HCT-116 [16]): inactive; Activity (HT-29 [17]): 37.8%; Activity (HCT-116 [18]): Active; Activity (HCT-116 [19]): Active; Activity (HT-29 [20]): Active
C=C[C@@H](c1ccc(OC)c(OC)c1)c1c(O)cc(O)c2c(=O)cc(-c3ccccc3)oc12,1.6,1.3,
C=C[C@@H](c1ccc(O)c(OC)c1)c1c(OC)cc(OC)c2c(=O)cc(-c3ccccc3)oc12,2.2,2.3,
C=C[C@@H](c1ccc(O)c(OC)c1)c1c(O)cc(O)c2c(=O)cc(-c3ccc(OC)cc3)oc12,2.3,1.4,
C=C[C@@H](c1ccc(OC)c(OC)c1)c1c(OC)cc(OC)c2c(=O)cc(-c3ccccc3)oc12,1.5,1.6,
C=C[C@@H](c1ccc(OCc2ccccc2)c(OC)c1)c1c(OCc2ccccc2)cc(OCc2ccccc2)c2c(=O)cc(-c3ccccc3)oc12,0.6,2,
C=C[C@@H](c1ccc(O)c(OC)c1)c1c(O)cc(O)c2c(=O)cc(-c3ccccc3)oc12,1.7,2.3,Activity (MRC5 [21]): Active
COc1cc(/C=C/COc2cc(OCc3ccccc3)c3c(=O)cc(-c4ccccc4)oc3c2)ccc1OCc1ccccc1,3,1,Activity (HCT-116 [22]): inactive; Activity (MRC5 [21]): inactive; Activity (MRC5 [14]): inactive; Activity (HCT-116 [15]): 79.3%; Activity (HT-29 [17]): 99.2%; Activity (HT-29 [23]): inactive
C=C[C@@H](c1ccc(OCc2ccccc2)c(OC)c1)c1c(O)cc(OCc2ccccc2)c2c(=O)cc(-c3ccccc3)oc12,1.1,1.5,
C=C[C@@H](c1ccc(O)c(OC)c1)c1c(O)cc(OC)c2c(=O)cc(-c3ccccc3)oc12,1.8,1.6,
C=C[C@@H](c1ccccc1)c1c(O)cc(O)c2c(=O)cc(-c3ccccc3)oc12,2.4,1.5,
C=C[C@@H](c1ccc(OC)cc1)c1c(O)cc(O)c2c(=O)cc(-c3ccccc3)oc12,1.1,1.8,Activity (MRC5 [14]): inactive
C=C[C@@H](c1ccc(OC)c(OC)c1)c1c(OC)cc(O)c2c(=O)cc(-c3ccccc3)oc12,2.2,2,
